In publication PMC8952214 (Pharmaceuticals, 2022):
Where two headings read alike, the source gives them in different places.

How the values were obtained:
[1] = test system: A/RomaISS/02/08 H1N1 (Brisbane-like) oseltamivir-sensitive virus; type: biochemical, Influenza A virus
[2] = test system: A/RomaISS/02/08 H1N1 (Brisbane-like) oseltamivir-sensitive virus; conditions: Table 1; turkey erythrocytes; cited from earlier work
[3] = test system: A/Parma/05/06 H3N2 (Wisconsin-like); assay: microbe, parasite or virus in culture; type: cell-based, Influenza A virus; conditions: for EC50: Influenza A virus, H3N2, MDCK, 48 h, read-out: EC50 A/Parma H3N2
Cytotoxicity assay = type: cell-based, canine; conditions: dog, MDCK cells (confluent); read-out: CC50 cytotoxic concentration 50%
Experimental: Madin-Darby canine kidney (MDCK, ATCC, CRL-2936) cells were grown at 37 °C in minimal essential medium (MEM, Invitrogen, Paisley, UK) containing 1.2 g/L NaHCO3, and supplemented with 10% inactivated fetal calf serum (FCS, Invitrogen, Paisley, UK), 2 mM glutamine, nonessential amino acids, penicillin (100 IU/mL), and streptomycin (100 μg/mL).
This procedure was performed as reported elsewhere. Briefly, two-fold serial dilutions of each compound and DMSO or H2O in culture medium were incubated at 37 °C with confluent MDCK cells grown in 96-well tissue culture microplates (Nalge Nunc Europe Ltd., Neerijse, Belgium). After 24 and 48 h, the following parameters were evaluated: cell morphology was examined by light microscopy, cell viability was determined by neutral red staining as already described by us, and cell proliferation was evaluated quantitatively by microscopic counts after dispersion into individual cells with trypsin.

A/H1N1 = conditions: cited from earlier work
[4] = test system: A/RomaISS/02/08 H1N1 (Brisbane-like) oseltamivir-sensitive virus; conditions: MDCK cells, c.p.e. by neutral red, 48 h; read-out: EC50 A/Roma H1N1; cited from earlier work
[5] = test system: A/Parma/05/06 H3N2 (Wisconsin-like); type: biochemical, Influenza A virus
[6] = test system: A/RomaISS/02/08 H1N1 (Brisbane-like) oseltamivir-sensitive virus; assay: microbe, parasite or virus in culture; type: cell-based, Influenza A virus; conditions: for EC50: Influenza A virus, H1N1, MDCK, 48 h, read-out: EC50 A/Roma H1N1

| Compound | HI Titer A/Roma H1N1 [1] [pM] | HI Titer A/Roma H1N1 [2] [µM] | SI (selectivity index) = CC50/EC50, A/Parma H3N2 [3] | CC50 (Cytotoxicity assay) [µM] | HI Titer A/Parma H3N2 [5] | further results |
| --- | --- | --- | --- | --- | --- | --- |
| O=C1CCCN1c1ccc(CNS(=O)(=O)c2ccc(F)cc2)cc1 [Compound 23] | 12 |  |  |  |  |  |
| Cc1ccc(S(=O)(=O)NC(C)c2ccc(-n3ccnc3)cc2)cc1C (stereo not drawn) [Compound 1] |  | 0.24 | 3 × 10^3 | 300 | 0.48 µM | EC50 [3]: 0.098 µM; activity in hemolysis assays toward A/H1N1 (A/H1N1): active; EC50 [4]: 0.5 µM |
| Cc1nc(-c2cccc(NC(=O)COC(=O)c3ccc4ccccc4n3)c2)cs1 [Compound 26] | 0.093 |  |  |  |  |  |
| N#Cc1ccc(NC(=O)COC(=O)c2ccccn2)cc1 [Compound 7] | 0.047 |  | 0.44 × 10^2 | 31.2 | 12,500 pM | SI (selectivity index) = CC50/EC50, A/Roma H1N1 [6]: 0.39 × 10^2; EC50 [6]: 0.8 µM; EC50 [3]: 0.7 µM |
| Fc1ccc(CNc2ncnc3[nH]cnc23)cc1 [Compound 2] |  | 0.48 |  |  |  |  |
| O=C(COC(=O)c1ccccn1)Nc1ccc2c(c1)CCC2 [Compound 24] | 0.024 |  |  |  |  |  |
| Cc1ccc(F)cc1NC(=O)COC(=O)c1ccc2ccccc2n1 [Compound 4] |  | 0.48 | 2 × 10^3 | 250 | 0.48 µM | EC50 [3]: 0.125 µM; activity in hemolysis assays toward A/H1N1 (A/H1N1): active; EC50 [4]: 0.062 µM |
| COc1ccc(C(=O)Nc2cccc(S(=O)(=O)NCc3ccco3)c2)cc1 [Compound 3] |  | 0.48 |  |  |  |  |
| Cc1ccc(NC(=O)COC(=O)c2ccccn2)cc1F [Compound 13] | 24 |  | 0.62 × 10^2 | 31.2 | 6e-06 µM | EC50 [6]: 0.7 µM |
| COc1ccc(S(=O)(=O)NCc2ccc(-n3ccnc3)cc2)cc1F [Compound 25] |  |  | 0.39 × 10^2 | 31.2 | 50,000 pM | SI (selectivity index) = CC50/EC50, A/Roma H1N1 [6]: 0.34 × 10^2; EC50 [6]: 0.9 µM |
| Cc1ccc2nc(CNc3ccc(C)c(Cl)c3)cc(=O)n2c1 [Compound 5] |  | 0.48 |  |  |  |  |
| O=C(CC1(O)C(=O)Nc2ccccc21)c1ccccn1 (stereo not drawn) [Compound 6] |  |  | 1.04 × 10^2 | 31.2 | 0.00048 µM | SI (selectivity index) = CC50/EC50, A/Roma H1N1 [6]: 1.56 × 10^2; EC50 [6]: 0.2 µM; EC50 [3]: 0.3 µM |
| Cc1ccc(S(=O)(=O)Nc2ccc(-n3ccnc3)c(Cl)c2)cc1 [Compound 28] | 0.093 |  |  |  |  |  |
| CC(NS(=O)(=O)c1ccc2c(c1)CCC(=O)N2)c1ccc(-n2ccnc2)cc1 (stereo not drawn) [Compound 27] |  |  |  |  | 25,000 pM |  |
